Key:
SHP-77 = SHP-77 cancer cell proliferation inhibition (Cell Titer-Glo); type: cell-based; settings: Homo sapiens, SHP77, SHP-77 small cell lung cancer cell line, 72 hours
Description: (§1) In order to evaluate the cancer cell proliferation inhibitory activity of the compounds of the present invention, the following experiments were performed.
(§2) To evaluate the cancer cell proliferation inhibitory effect, the cell growth rate analysis was performed while culturing MDA-MB-231 cell line (Korean Cell Line Bank #30026) and MDA-MB-468 cell line as the triple-negative breast cancer cell line, and SHP-77 (ATCC #CRL-2195) as the small cell lung cancer cell line in DMEM (HyClone #SH30243) and RPMI medium (HyClone #SH3027.01), respectively. More specifically, the cell lines were each plated at 2000 cells/100 μl in each well of a 96-well flat-bottom plate (coming #3903), and then the example compounds having eleven concentrations which were diluted by ⅓ so that the final concentrations were 10.000000, 3.333333, 1.111111, 0.370370, 0.123457, 0.041152, 0.013717, 0.004572, 0.001524, 0.000508 and 0.000169 μM were treated. After 72 hours, 100 μl of Cell Titer-Glo (Promega G7573) was treated, incubated at RT for 10 minutes, and then luminescence was measured using a microplate reader. The measured luminescence degree was calculated as GI50 using Prism (version 8.2 GraphPad) software.
(§3) In the table below, the following designations were used for the evaluation of proliferation inhibitory activity.

LRRK2 (G2019S) = LRRK2 (G2019S) (Homo sapiens, UniProt Q5S007, G2019S); assay: LRRK2 G2019S enzyme inhibition, ADP-Glo kinase assay; type: biochemical; parameters: purchased SignalChem L10-12GG
In short: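 Activity read as ADP-Glo luminescence, normalized to untreated solvent control, with IC50 (nM) fitted over 12 final compound levels (top 50 μM). Reaction: 2 h, 25° C, human LRRK2 G2019S 16 ng, ATP 25 μM, substrate 0.2 μg, in Tris-HCl pH 7.4 with MgCl2, BSA and DTT.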

[1] = target: T1, human GST-DYRK1A (full length) (Homo sapiens, UniProt Q13627); assay: GST-DYRK1A enzyme inhibition, ADP-Glo kinase assay; type: biochemical; settings: read-out: DYRK1 IC50
T1 construct: purified human GST-DYRK1A (full length, Thermo scientifics) enzyme; GST; purchased Thermo scientifics
In short: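 ADP-Glo luminescence quantified kinase activity after a 1 h, 25° C reaction of 10 ng full-length GST-tagged human DYRK1A, substrate and 10 uM ATP in Tris-HCl buffer pH 7.4 with MgCl2, BSA and DTT. Triplicate IC50 values (nM) calculated relative to untreated solvent control.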

human GST-CLK1 (129-end) = target: T2, human GST-CLK1 (129-end) (Homo sapiens, UniProt P49759); assay: GST-CLK1 enzyme inhibition, ADP-Glo kinase assay; type: biochemical; settings: ATP 10 uM
T2 construct: purified human GST-CLK1 (129-end, Signalchem) enzyme; GST; purchased Signalchem
In short: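 ADP formation was read by ADP-Glo luminescence after 1 h at 25° C with 3 ng human GST-CLK1 (129-end), substrate and 10 uM ATP in Tris pH 7.4 buffer containing MgCl2, BSA and DTT. Inhibition relative to untreated solvent control gave IC50 (nM), run in triplicate.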

MDA-MB-231 cell line = assay: MDA-MB-231 cancer cell proliferation inhibition (Cell Titer-Glo); type: cell-based; settings: Homo sapiens, MDA-MB-231 triple-negative breast cancer cell line, 72 hours
Description: as §1, §2, §3

LRRK2 = LRRK2 (Homo sapiens, UniProt Q5S007); assay: LRRK2 enzyme inhibition, ADP-Glo kinase assay; type: biochemical; parameters: purchased Invitrogen PR8604B
In short: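 ADP-Glo luminescence read after 2 h at 25° C, 10 μM ATP, 25 ng purified human LRRK2 and […] substrate in Tris-HCl pH7.4 buffer with MgCl2, BSA, DTT. Twelve final concentrations, 50 μM down to 0.000001024 μM; IC50 (nM) from inhibition relative to untreated solvent control.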

human DYRK1A and Tau = assay: Tau phosphorylation inhibition, ClariCELL Kinase Cell-Based Assay (Carnabio)
Description: Tau phosphorylation inhibitory efficacy was measured using the ClariCELL™ Kinase Cell-Based Assay service of Carnabio, located in the United States. The compounds are exposed to human embryonic kidney ([…]) cells transiently expressing human DYRK1A and Tau, and then the cells are lysed to release cellular proteins. At this time, the released Tau is captured on a plate, and the degree of phosphorylation is quantified by ELISA using an antibody specific for Tau phosphorylation.

Sequence of LRRK2 (Q5S007 970-2527 limits assumed): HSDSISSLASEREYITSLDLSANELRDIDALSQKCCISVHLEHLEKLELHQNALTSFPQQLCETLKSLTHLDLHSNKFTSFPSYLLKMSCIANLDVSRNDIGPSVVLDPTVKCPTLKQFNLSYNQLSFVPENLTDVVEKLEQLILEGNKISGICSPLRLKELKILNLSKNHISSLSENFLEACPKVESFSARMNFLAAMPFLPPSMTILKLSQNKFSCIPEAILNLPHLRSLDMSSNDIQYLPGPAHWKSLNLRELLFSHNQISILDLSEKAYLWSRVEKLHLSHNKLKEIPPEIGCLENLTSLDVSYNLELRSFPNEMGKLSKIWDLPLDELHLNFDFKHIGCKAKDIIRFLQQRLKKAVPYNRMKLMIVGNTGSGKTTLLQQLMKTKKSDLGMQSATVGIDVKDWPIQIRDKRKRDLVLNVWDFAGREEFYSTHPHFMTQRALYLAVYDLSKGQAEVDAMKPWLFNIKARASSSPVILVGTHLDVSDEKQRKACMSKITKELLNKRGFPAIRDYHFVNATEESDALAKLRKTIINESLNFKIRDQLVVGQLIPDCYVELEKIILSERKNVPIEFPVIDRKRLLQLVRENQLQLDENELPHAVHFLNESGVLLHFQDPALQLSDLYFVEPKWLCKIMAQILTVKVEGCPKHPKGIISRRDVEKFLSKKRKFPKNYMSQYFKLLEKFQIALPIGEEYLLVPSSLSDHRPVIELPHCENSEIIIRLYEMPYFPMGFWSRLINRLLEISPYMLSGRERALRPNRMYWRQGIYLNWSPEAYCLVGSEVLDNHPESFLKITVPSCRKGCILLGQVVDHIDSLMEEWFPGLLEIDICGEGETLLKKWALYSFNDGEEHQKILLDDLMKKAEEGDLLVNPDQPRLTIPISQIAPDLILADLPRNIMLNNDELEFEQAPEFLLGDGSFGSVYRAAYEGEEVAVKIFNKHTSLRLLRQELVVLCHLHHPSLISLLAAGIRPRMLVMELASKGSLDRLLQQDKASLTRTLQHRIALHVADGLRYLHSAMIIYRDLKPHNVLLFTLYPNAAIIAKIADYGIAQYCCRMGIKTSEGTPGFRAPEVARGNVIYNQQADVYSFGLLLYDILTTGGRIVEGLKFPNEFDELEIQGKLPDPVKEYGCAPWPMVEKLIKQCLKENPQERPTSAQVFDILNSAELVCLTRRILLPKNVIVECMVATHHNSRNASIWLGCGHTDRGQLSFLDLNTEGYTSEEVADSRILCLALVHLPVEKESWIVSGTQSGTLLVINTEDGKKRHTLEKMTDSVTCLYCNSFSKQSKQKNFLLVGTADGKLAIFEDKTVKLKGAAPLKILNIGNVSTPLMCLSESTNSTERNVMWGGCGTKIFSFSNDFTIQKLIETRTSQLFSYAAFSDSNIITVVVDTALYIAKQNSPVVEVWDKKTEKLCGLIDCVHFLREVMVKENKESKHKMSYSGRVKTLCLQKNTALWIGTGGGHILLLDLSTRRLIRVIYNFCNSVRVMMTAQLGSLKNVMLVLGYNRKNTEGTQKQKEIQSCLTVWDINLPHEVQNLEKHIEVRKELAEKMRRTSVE
Sequence of LRRK2 (G2019S) (Q5S007 970-2527 G2019S limits assumed): as the sequence (Q5S007 970-2527 limits assumed) above, with G1050S counted along it
T2 sequence (P49759 129-484 limits assumed): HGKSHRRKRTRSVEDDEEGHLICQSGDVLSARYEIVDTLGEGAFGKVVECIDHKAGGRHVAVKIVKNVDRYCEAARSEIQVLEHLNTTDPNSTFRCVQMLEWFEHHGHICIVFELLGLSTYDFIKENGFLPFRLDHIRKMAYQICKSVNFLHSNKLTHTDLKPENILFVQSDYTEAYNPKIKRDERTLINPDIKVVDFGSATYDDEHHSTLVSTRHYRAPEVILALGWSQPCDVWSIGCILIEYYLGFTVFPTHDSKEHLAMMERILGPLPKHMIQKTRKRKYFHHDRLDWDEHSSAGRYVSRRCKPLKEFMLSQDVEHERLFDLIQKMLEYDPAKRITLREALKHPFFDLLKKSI

SMILES | GI50 (SHP-77) [nM] | IC50 (LRRK2 (G2019S)) [nM] | IC50 [1] [nM] | IC50 (human GST-CLK1 (129-end)) [nM] | GI50 (MDA-MB-231 cell line) [nM] | IC50 (LRRK2) [nM] | inhibition at 0.25 µM (human DYRK1A and Tau; 0.25 uM) [%] | inhibition at 0.5 µM (human DYRK1A and Tau; 0.5 uM) [%] | inhibition at 1 µM (human DYRK1A and Tau; 1 uM) [%]
CNc1cc(Nc2ccc(S(=O)(=O)N3CCOCC3)cc2OC)nc2[nH]ccc12 [Example 10, N^6-(2-methoxy-4-(morpholinosulfonyl)phenyl)-N^4-methyl-1H-pyrrolo[2,3-b]pyridine-4,6-diamine] | 301 to 1000 | 101 to 300 | 301 to 1000 | 301 to 1000 | 301 to 1000 | – | – | – | –
CCNc1cc(Nc2ccc(S(=O)(=O)N3CCC(N4CCOCC4)CC3)c3c2OCC3)nc2[nH]cc(C(F)(F)F)c12 [Example 104, N^4-ethyl-N^6-(4-((4-morpholinopiperidin-1-yl)sulfonyl)-2,3-dihydrobenzofuran-7-yl)-3-(trifluoromethyl)-1H-pyrrolo[2,3-b]pyridine-4,6-diamine] | 101 to 300 | – | 301 to 1000 | 301 to 1000 | 301 to 1000 | < 100 | – | – | –
COc1cc(S(=O)(=O)N2CCC(N3CCOCC3)CC2)ccc1Nc1cc(NCCS(C)(=O)=O)c2c(C#N)c[nH]c2n1 [Example 141, 6-((2-methoxy-4-((4-morpholinopiperidin-1-yl)sulfonyl)phenyl)amino)-4-((2-(methylsulfonyl)ethyl)amino)-1H-pyrrolo[2,3-b]pyridine-3-carbonitrile] | 51 to 100 | – | < 100 | 301 to 1000 | 101 to 300 | < 100 | – | – | –
COC[C@@H](C)Nc1cc(Nc2ccc(S(=O)(=O)N3CCC(N4CCOCC4)CC3)cc2OC)nc2[nH]cc(C(F)(F)F)c12 [Example 196, (R)-N^6-(2-methoxy-4-((4-morpholinopiperidin-1-yl)sulfonyl)phenyl)-N^4-(1-methoxypropan-2-yl)-3-(trifluoromethyl)-1H-pyrrolo[2,3-b]pyridine-4,6-diamine] | 101 to 300 | – | 301 to 1000 | 301 to 1000 | 301 to 1000 | < 100 | – | – | –
COc1cc(S(=O)(=O)N2CCC(N3CCOCC3)CC2)ccc1Nc1cc(NC(C)C)c2c(C(F)(F)F)c[nH]c2n1 [Example 198, N^4-isopropyl-N^6-(2-methoxy-4-((4-morpholinopiperidin-1-yl)sulfonyl)phenyl)-3-(trifluoromethyl)-1H-pyrrolo[2,3-b]pyridine-4,6-diamine] | 301 to 1000 | – | 301 to 1000 | 301 to 1000 | 301 to 1000 | – | – | – | –
COc1cc(S(=O)(=O)N2CCC(N3CCOCC3)CC2)ccc1Nc1cc(NC2CCC2)c2c(C(F)(F)F)c[nH]c2n1 [Example 202, N^4-cyclobutyl-N^6-(2-methoxy-4-((4-morpholinopiperidin-1-yl)sulfonyl)phenyl)-3-(trifluoromethyl)-1H-pyrrolo[2,3-b]pyridine-4,6-diamine] | 301 to 1000 | – | 301 to 1000 | 301 to 1000 | 301 to 1000 | 301 to 1000 | – | – | –
CNc1cc(Nc2ccc(P3(=O)CCN(C4CCOCC4)CC3)cc2OC)nc2[nH]cc(C(F)(F)F)c12 [Example 216, 4-(3-methoxy-4-((4-(methylamino)-3-(trifluoromethyl)-1H-pyrrolo[2,3-b]pyridin-6-yl)amino)phenyl)-1-(tetrahydro-2H-pyran-4-yl)-1,4-azaphosphinane 4-oxide] | – | 101 to 300 | < 100 | < 100 | 301 to 1000 | 101 to 300 | 22.8 | 30.3 | 49.5
CNc1cc(Nc2cc(F)c(S(=O)(=O)N3CCC(N4CCOCC4)CC3)cc2OC)nc2[nH]cc(C(F)(F)F)c12 [Example 265, N^6-(5-fluoro-2-methoxy-4-((4-morpholinopiperidin-1-yl)sulfonyl)phenyl)-N^4-methyl-3-(trifluoromethyl)-1H-pyrrolo[2,3-b]pyridine-4,6-diamine] | 301 to 1000 | < 100 | 101 to 300 | 301 to 1000 | 301 to 1000 | – | – | – | –
